Data published in patent publication US5840714A, “Inclusion complexes of racemic ibuproxam and of optically active ibuproxam with cyclodextrin derivatives, pharmaceutical preparations containing said inclusion complexes and methods for using same” (priority 1993, dated 1998).

Experiments:
in vivo = conditions: po
Experimental: (§1) In the test mice of Han-NMRI strain of both sexes, weight 19 to 24 g, and female rats of Han-WISTAR strain, weight 220 to 250 g, were used. The active substance was suspended in arachis oil and applied perorally. The volume of the applied suspension was 0.2 ml/20 g body weight in mice and 0.2 ml/200 g body weight in rats. Before the test the animals were fasted for 24 hours and after application, water and food were available ad libitum.

mice of Han-NMRI strain = test: in vivo; conditions: for comparative toxicity (in words): peroral, mice and rats
Experimental: as §1

gastric mucous membrane = test: Effect on gastric mucous membrane (irritation); type: in vivo, rats
Experimental: […] After 4 hours its effect on irritation of gastric mucous membrane was measured in a way that the rate of bleeding in stomach and frequency of ulcers was determined.

[1] = tested on: oedema caused by carrageenin; test: Antiinflammatory action in vivo (carrageenin oedema); design: species or system rats
Experimental: Antiinflammatory action was measured in vivo by the inhibition of oedema caused by carrageenin.
Rats, which were fasted overnight, were given 100 mg/kg of the test substance 1 hour before the injection of 0.1 ml 1% carrageenin suspension.

[2] = tested on: convulsions caused by phenylbenzoquinone; test: Alleviation of pain (phenylbenzoquinone-induced convulsions); type: in vivo, female mice; conditions: Mus musculus, po, read-out: ED50 (50% pain protection); 95% confidence limit; peroral, 30 minutes before intraperitoneal phenylbenzoquinone
Experimental: The effect of alleviating pain was tested with the number of convulsions caused by phenylbenzoquinone. Female mice, weight 15 to 22 g, were fasted before the test for 24 hours and after the application water and food were ad libitum. 30 minutes after peroral introduction of the suspension of active substance in 10% gum arabic solution, individual mice were intraperitoneally administered 0.25 ml of 0.02% phenylbenzoquinone solution. Only the vehicle was applied to a control group of animals. The number of phenylbenzoquinone-induced convulsions was pursued 5 to 20 minutes after the application thereof.
ED50 calculated dosis of the active substance in mg per 1 kg of the
animal, which dosis caused a 50% pain protection

[3] = cited from earlier work
[4] = in vivo; cited from earlier work
[5] = irrespective of application route; cited from earlier work
[6] = cited from earlier work; remark: listed apart in the source
[7] = mouse, in vivo, 2000 mg/kg, % of deaths after 15 days, female mice, 2000 mg/kg peroral
[8] = mouse, in vivo, 2000 mg/kg, % of deaths after 15 days, male mice, 2000 mg/kg peroral
[9] = mouse, in vivo, 2000 mg/kg, % of deaths in 24 h, female mice, 2000 mg/kg peroral
[10] = mouse, in vivo, 2000 mg/kg, % of deaths in 24 h, male mice, 2000 mg/kg peroral

CC(C)Cc1ccc([C@H](C)C(=O)NO)cc1 [S-(+)-ibuproxam, S-(+)-2-(4-isobutylphenyl)-propiohydroxamic acid]
mortality at 360 h (in vivo; [7]): 0% | mortality at 360 h (in vivo; [8]): 0% | mortality at 24 h (in vivo; [9]): 0% | mortality at 24 h (in vivo; [10]): 0% | mortality at 24 h (in vivo; rat, 1000 mg/kg): 0% | mortality at 360 h (in vivo; rat, 1000 mg/kg): 50% | mortality at 360 h (in vivo; rat, 2000 mg/kg): 50% | animals died (in words) (mice of Han-NMRI strain; female mice, 1000 mg/kg or 2000 mg/kg peroral, 15 days): no animal died | animals died (in words) (mice of Han-NMRI strain; male mice, 2000 mg/kg peroral): no animal died | animals died in 15 days (in words) (mice of Han-NMRI strain; mice of both sexes, 2000 mg/kg peroral): no animal died in 15 days | comparative toxicity (in words) (mice of Han-NMRI strain): less toxic than S-(+)-ibuprofen | irritation of gastric mucous membrane (gastric mucous membrane; dose 30 mg/kg peroral, rate of bleeding and frequency of ulcers after 4 hours): 0 | irritating effect on gastric mucous membrane (in words) (gastric mucous membrane; rat, in vivo): did not exhibit an irritating effect on gastric mucous membrane | antiinflammatory action ([1]; 100 mg/kg peroral, 1 hour before carrageenin, oedema inhibition 3 hours after carrageenin): 37 | comparative antiinflammatory action (in words) ([1]; rat, in vivo): greater antiinflammatory action than free racemic ibuproxam | ED50 [2]: 73 mg/kg

CC(C)Cc1ccc(C(C)C(=O)O)cc1 (centres unmarked) [ibuprofen, 2-(4-isobutylphenyl)-propionic acid]
LD50 comparison at parenteral application [3]: the same for both substances | analgetic, antipyretic and antiinflammatory action (in words) [4]: same analgetic, antipyretic and antiinflammatory action of both substances

CC(C)Cc1ccc(C(C)C(=O)NO)cc1 (racemic) [racemic ibuproxam, 2-(4-isobutylphenyl)-propiohydroxamic acid]
metabolic conversion into ibuprofen (in words) [5]: rapid and almost complete metabolic conversion into ibuprofen | LD50 comparison at parenteral application [3]: the same for both substances | analgetic, antipyretic and antiinflammatory action (in words) [4]: same analgetic, antipyretic and antiinflammatory action of both substances | bioavailability in comparison with ibuprofen (in words) [4]: better bioavailability of ibuproxam in comparison with ibuprofen | toxicity for the mucous membrane of the alimentary tract (in words) [4]: less toxic for the mucous membrane of the alimentary tract

CC(C)Cc1ccc([C@H](C)C(=O)O)cc1 [S-(+)-ibuprofen]
mortality at 360 h (in vivo; mouse, in vivo, 1000 mg/kg, % of deaths after 15 days, female mice, 1000 mg/kg peroral): 10% | mortality at 24 h (in vivo; mouse, in vivo, 1000 mg/kg, % of deaths in 24 h, female mice, 1000 mg/kg peroral): 10% | mortality at 360 h (in vivo; [7]): 10% | mortality at 360 h (in vivo; [8]): 30% | mortality at 24 h (in vivo; [9]): 10% | mortality at 24 h (in vivo; [10]): 0% | mortality at 48 h (in vivo; mouse, in vivo, 2000 mg/kg, animals died in 48 hours, male mice, 2000 mg/kg peroral): 30% | LD50 (in vivo; rat): < 1000 mg/kg | mortality at 24 h (in vivo; rat, 1000 mg/kg): 0% | mortality at 144 h (in vivo; rat, 1000 mg/kg): 83.3% | mortality at 360 h (in vivo; rat, 1000 mg/kg): 83.3% | comparative toxicity (in words) (mice of Han-NMRI strain): acute toxicity of S-(+)-ibuprofen in all test animals is greater than acute toxicity of S-(+)-ibuproxam | irritation of gastric mucous membrane (gastric mucous membrane; rat, in vivo, 30 mg/kg): 12 | pharmacological activity (in words) ([6]; in vivo): pharmacologically active

CC(C)Cc1ccc([C@@H](C)C(=O)O)cc1 [R-(-)-enantiomer]
conversion to S-(+)-enantiomer in humans ([6]; humans): only one third thereof, is converted to S-(+)-enantiomer
